In US20240182460A1, “ALLOSTERIC CHROMENONE INHIBITORS OF PHOSPHOINOSITIDE 3-KINASE (PI3K) FOR THE TREATMENT OF DISEASE” (PETRA PHARMA CORPORATION, priority 2022, published 2024):
pIC50: −log10 of the molar value. Like-named read-outs stand apart in the source and are kept apart here.

How the values were obtained:
[1] = biological target: T1, PI3Kα H1047R (Homo sapiens, UniProt P42336, H1047R); assay: PI3Kα H1047R mutant in vitro cell based assay, MDA-MB-453 cells (AlphaLisa SureFire); conditions: MDA-MB-453 cell line, 0% FBS, 3 hours treatment
T1 construct: The MDA-MB-453 (ATCC-HTB-131) cell line (PI3Kα H1047R); host or cells: MDA-MB-453
Excerpt: PI3K-Alpha Kinase (PI3Kα) Activity: Wild-Type PI3Kα, H1047R Mutant PI3Kα, and E545K Mutant PI3Kα In Vitro Cell Based Assays and Determination of IC50 Values for Inhibitors
The MDA-MB-453 (ATCC-HTB-131) cell line (PI3Kα H1047R) and MCF-7 (ATCC-HTB-22) cell line (PI3Kα E545K), MDA-MB-361 (ATCC-HTB-27) cell line (PI3Kα E545K), and SKBR3 (ATCC-HTB-30) cell line (wild type PI3Kα) were obtained from the American Type Culture Collection (Manassas, VA). MDA-MB-453 cells were maintained in Dulbecco's Modified Eagle Media (DMEM, Gibco 12430) supplemented with 10% Fetal Bovine Serum, heat inactivated (FBS HI, Gibco 10082), 1× non-essential amino acids (NEAA, Gibco 11140), 1 mM sodium pyruvate (Gibco 11360) and 1× Anti-Anti (Gibco 15240). MCF-7 cells were maintained in Minimum Essential Media (MEM) (Gibco 11095) supplemented with 10% Fetal Bovine Serum, heat inactivated (FBS HI, Gibco 10082), 1× non-essential amino acids (NEAA, Gibco 11140), 1 mM sodium pyruvate (Gibco 11360), 1× Anti-Anti (Gibco 15240) and 10 μg/mL human insulin (Sigma I 9278). MDA-MB-361 cells were maintained in Dulbecco's Modified Eagle Media (DMEM, Gibco 12430) supplemented with 20% Fetal Bovine Serum, heat inactivated (FBS HI, Gibco 10082), 1× non-essential amino acids (NEAA, Gibco 11140), 1 mM sodium pyruvate (Gibco 11360) and 1× Anti-Anti (Gibco 15240). SKBR3 cells were maintained in McCoy's 5A (Gibco 16600) supplemented with 10% Fetal Bovine Serum, heat inactivated (FBS HI, Gibco 10082), and 1× Anti-Anti (Gibco 15240). Cultures were maintained in a humidified incubator at 37° C. under 5% CO2/95% air.
For compound testing in 0% FBS, MDA-MB-453, MCF-7 and SKBR3 cells were seeded at a density of 1.5×10^4, 1.0×10^4, and 1.0×10^4 cells, respectively, per well in white 384-well plates in 20 μl of Minimum Essential Media (MEM) assay media with 1×NEAA, 1 mM sodium pyruvate, and 1 μg/mL human insulin (Sigma 19278) (Assay Medium); while MDA-MB-361 cells were seeded at a density of 1.5×10^4 per well in white 384-well plates in 20 μl Assay Medium without insulin. After plating, cells were allowed to attach overnight. Compounds dissolved in 10 mM stock solutions in DMSO were serially diluted 1:3 in DMSO to generate a 10-point dilution series and plated using an acoustic liquid handler system (Echo 550 Series Liquid Handler, Labcyte). A 5× intermediate compound dilution plate in MEM with 1×NEAA and 1 mM sodium pyruvate (150 μM starting compound concentration in 1.5% DMSO) was then prepared. Five μl of the intermediate serially diluted compounds were added to the cell plate to final concentrations ranging from […] in 0.3% DMSO. 0.3% DMSO alone was used to establish the maximum (MAX) signal and GDC-0032 at a final concentration of 1 μM was used as a reference compound for the minimum (MIN) signal. After 3 hours treatment, the medium was removed, and the cells were lysed in 10 μL of 1× SureFire Lysis buffer with shaking for 10 minutes at room temperature. The Acceptor Mix (Reaction Buffer 1+Reaction Buffer 2+Activation Buffer+SureFire Ultra Acceptor Beads) was prepared by diluting Activation buffer 25-fold in combined Reaction Buffer 1 and Reaction Buffer 2.
The Acceptor beads were diluted 50-fold in the combined Reaction Buffers. Five μL of Acceptor Mix was added to each well, the plate was sealed and covered with foil and incubated for 1 hour at room temperature. The Donor Mix (dilution buffer+SureFire Ultra Donor Beads) was prepared by diluting Donor Beads 50-fold in dilution buffer. Five μL of the Donor Mix was added to each well and the plate sealed and covered with foil and incubated for 1-2 hours at room temperature in the dark. The plates were read on a Neo2 plate reader instrument from Biotek using standard AlphaLisa settings.
Compounds were tested in duplicate and the % inhibition at each compound concentration was used to generate two dose response curves. One IC50 was generated using average % inhibition at each compound concentration. […]

[2] = biological target: T2, PI3Kα E545K (Homo sapiens, UniProt P42336, E545K); assay: PI3Kα E545K mutant in vitro cell based assay, MCF-7 cells; conditions: MCF-7 cell line, 0% FBS, 3 hours treatment
Procedure, shortened: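 MCF-7 cells (PI3Kα E545K) in serum-free MEM with 1 μg/mL insulin were treated 3 h with 10-point 1:3 dilutions in 0.3% DMSO. Lysates were read by SureFire AlphaLisa. IC50 was fitted by 4-parameter logistic to % inhibition relative to DMSO (max) and 1 μM GDC-0032 (min), duplicates averaged.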

[3] = biological target: T2, PI3Kα E545K; assay: PI3Kα E545K mutant in vitro cell based assay, MDA-MB-361 cells; design: MDA-MB-361 (ATCC-HTB-27) cell line (PI3Kα E545K); host or cells: MDA-MB-361; conditions: MDA-MB-361 cell line, 0% FBS, no insulin, 3 hours treatment
Procedure, shortened: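 MDA-MB-361 cells (PI3Kα E545K) seeded in serum-free MEM assay medium without insulin, attached overnight, then treated 3 h with compound (10-point 1:3 series, 0.3% DMSO). AlphaLISA SureFire readout of lysates. IC50 by 4-parameter fit, normalized to DMSO (max) and 1 μM GDC-0032 (min).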

[4] = Metabolic stability and intrinsic clearance in human liver microsomes (MICS); assay type: in vitro ADME; conditions: pH 7.4
Procedure, shortened: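 Test compound (1 μM final) incubated at 37° C with liver microsomes (0.5 mg/mL protein) in 100 mM phosphate buffer pH 7.4, with 1 mM NADPH or without cofactor; sampled at 0.5–60 min, quenched with cold acetonitrile. Parent remaining quantified by LC-MS/MS; t1/2 from ln-% remaining slope converted to CLint (μL/min/mg protein).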

T2 sequence (P42336 whole entry E545K): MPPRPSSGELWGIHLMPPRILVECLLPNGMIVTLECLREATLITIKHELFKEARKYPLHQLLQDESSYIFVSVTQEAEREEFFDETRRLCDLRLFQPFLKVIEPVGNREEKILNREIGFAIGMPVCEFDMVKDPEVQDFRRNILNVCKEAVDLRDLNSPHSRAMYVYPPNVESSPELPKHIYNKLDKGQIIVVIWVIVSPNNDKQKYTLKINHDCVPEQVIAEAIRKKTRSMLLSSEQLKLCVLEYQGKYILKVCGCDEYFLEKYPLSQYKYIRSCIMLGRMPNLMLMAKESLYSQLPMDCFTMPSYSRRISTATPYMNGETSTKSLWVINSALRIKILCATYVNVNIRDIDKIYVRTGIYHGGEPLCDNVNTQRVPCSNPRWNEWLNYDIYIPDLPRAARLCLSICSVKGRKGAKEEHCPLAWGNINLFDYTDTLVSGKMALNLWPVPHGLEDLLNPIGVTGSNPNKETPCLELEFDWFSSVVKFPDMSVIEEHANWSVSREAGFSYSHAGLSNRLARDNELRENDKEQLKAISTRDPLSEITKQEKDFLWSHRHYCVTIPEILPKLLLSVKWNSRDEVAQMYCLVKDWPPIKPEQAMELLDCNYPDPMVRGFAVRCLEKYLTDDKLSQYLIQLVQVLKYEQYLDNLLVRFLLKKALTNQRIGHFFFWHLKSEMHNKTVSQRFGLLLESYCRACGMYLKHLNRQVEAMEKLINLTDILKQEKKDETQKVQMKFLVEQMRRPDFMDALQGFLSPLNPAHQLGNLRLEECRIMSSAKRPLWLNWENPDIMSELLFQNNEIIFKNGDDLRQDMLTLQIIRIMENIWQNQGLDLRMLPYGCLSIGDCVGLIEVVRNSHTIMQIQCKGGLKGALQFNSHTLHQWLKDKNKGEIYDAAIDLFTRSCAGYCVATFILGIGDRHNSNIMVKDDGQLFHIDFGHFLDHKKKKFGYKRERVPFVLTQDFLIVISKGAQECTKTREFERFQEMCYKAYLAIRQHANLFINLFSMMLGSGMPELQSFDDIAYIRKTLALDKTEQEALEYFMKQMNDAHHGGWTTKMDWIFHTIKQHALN
T2 sequence (P27986 whole entry partner): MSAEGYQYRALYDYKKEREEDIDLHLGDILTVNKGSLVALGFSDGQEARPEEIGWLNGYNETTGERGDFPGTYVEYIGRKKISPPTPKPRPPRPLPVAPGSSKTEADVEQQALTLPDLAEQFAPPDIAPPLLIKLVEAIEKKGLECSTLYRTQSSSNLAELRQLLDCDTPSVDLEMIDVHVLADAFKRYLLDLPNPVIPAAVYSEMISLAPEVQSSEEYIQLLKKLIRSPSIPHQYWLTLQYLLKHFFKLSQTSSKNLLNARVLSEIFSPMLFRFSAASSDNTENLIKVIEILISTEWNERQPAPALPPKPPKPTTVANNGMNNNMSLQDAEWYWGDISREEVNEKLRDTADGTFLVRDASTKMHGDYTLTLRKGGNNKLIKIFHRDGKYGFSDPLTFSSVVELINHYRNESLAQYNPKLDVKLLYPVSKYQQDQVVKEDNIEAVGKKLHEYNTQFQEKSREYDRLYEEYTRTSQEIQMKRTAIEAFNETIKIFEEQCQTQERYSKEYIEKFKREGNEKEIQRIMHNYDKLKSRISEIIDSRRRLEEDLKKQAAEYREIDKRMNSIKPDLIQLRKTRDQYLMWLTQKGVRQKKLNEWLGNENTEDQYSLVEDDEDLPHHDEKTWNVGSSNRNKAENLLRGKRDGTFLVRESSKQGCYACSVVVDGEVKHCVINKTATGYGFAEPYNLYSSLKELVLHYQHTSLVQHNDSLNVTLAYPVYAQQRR
T1 sequence (P42336 whole entry H1047R): as the sequence (P42336 whole entry E545K) above, with K545E, H1047R counted along it
T1 sequence (P27986 whole entry partner): as the sequence (P27986 whole entry partner) above

Compound: Cc1cc([C@@H](C)Oc2ccc(Cl)nc2S(C)(=O)=O)c2oc(-c3cnn(C)c3)c(C)c(=O)c2c1 [Example 146A, 8-[(1R)-1-[(6-Chloro-2-methylsulfonyl-3-pyridyl)oxy]ethyl]-3,6-dimethyl-2-(1-methylpyrazol-4-yl)chromen-4-one]
- pIC50 [1]: > 7.00
- pIC50 [2]: > 6.30
- pIC50 [3]: > 6.30

Compound: Cc1cc([C@@H](C)Oc2ccc(Cl)nc2C(N)=O)c2oc(-c3ccc4[nH]ncc4c3)c(C)c(=O)c2c1 [Example 22B, 6-Chloro-3-[(1R)-1-[2-(1H-indazol-5-yl)-3,6-dimethyl-4-oxo-chromen-8-yl]ethoxy]pyridine-2-carboxamide]
- pIC50 [1]: > 7.00
- pIC50 [2]: > 6.30
- pIC50 [3]: > 6.30

Compound: Cc1cc([C@@H](C)Oc2ccc(Cl)nc2N)c2oc(-c3cnn(C)c3)c(C)c(=O)c2c1 [Example 30B, 8-[(1R)-1-[(2-Amino-6-chloro-3-pyridyl)oxy]ethyl]-3,6-dimethyl-2-(1-methylpyrazol-4-yl)chromen-4-one]
- pIC50 [1]: > 7.00
- pIC50 [2]: > 6.30
- pIC50 [3]: > 6.30

Compound: Cc1cc([C@@H](C)Oc2ccc(Cl)nc2S(N)(=O)=O)c2oc(-c3cccnc3)c(C)c(=O)c2c1 [Example 42A, 6-Chloro-3-[(1R)-1-[3,6-dimethyl-4-oxo-2-(3-pyridyl)chromen-8-yl]ethoxy]pyridine-2-sulfonamide]
- pIC50 [1]: > 7.00
- microsomal CLint at 1 μM ([4]; human, microsomes): < 50 µL/min/mg

Compound: Cc1cc([C@@H](C)Oc2ccc(Cl)nc2S(C)(=O)=O)c2oc(-c3cnn(CCO)c3)c(C)c(=O)c2c1 [Example 29B, 8-[(1R)-1-[(6-Chloro-2-methylsulfonyl-3-pyridyl)oxy]ethyl]-2-[1-(2-hydroxyethyl)pyrazol-4-yl]-3,6-dimethyl-chromen-4-one]
- pIC50 [1]: > 7.00
- pIC50 [2]: > 6.30
- pIC50 [3]: > 6.30

Compound: Cc1cc([C@@H](C)Oc2cccnc2S(N)(=O)=O)c2oc(-c3ccccc3)c(C)c(=O)c2c1 [Example 94C, 3-[(1R)-1-(3,6-Dimethyl-4-oxo-2-phenyl-chromen-8-yl)ethoxy]pyridine-2-sulfonamide]
- pIC50 [1]: > 7.00
- pIC50 [2]: > 6.30

Compound: Cc1cc([C@@H](C)Oc2ccc(Cl)nc2S(N)(=O)=O)c2oc(C3CC3)c(C)c(=O)c2c1 [Example 74A, 6-Chloro-3-[(1R)-1-(2-cyclopropyl-3,6-dimethyl-4-oxo-chromen-8-yl)ethoxy]pyridine-2-sulfonamide]
- pIC50 [1]: > 7.00
- pIC50 [2]: > 6.30
- pIC50 [3]: > 6.30

Compound: Cc1cc([C@@H](C)Oc2ccc(Cl)nc2S(N)(=O)=O)c2oc(-c3cnc(C4CC4)nc3)c(C)c(=O)c2c1 [Example 83A, 6-Chloro-3-[(1R)-1-[2-(2-cyclopropylpyrimidin-5-yl)-3,6-dimethyl-4-oxo-chromen-8-yl]ethoxy]pyridine-2-sulfonamide]
- pIC50 [1]: > 7.00
- pIC50 [2]: > 6.30
- microsomal CLint at 1 μM ([4]; human, microsomes): < 50 µL/min/mg

Compound: Cc1cc([C@@H](C)Oc2ccc(Cl)nc2C(N)=O)c2oc(-c3ccc4nc(C)sc4c3)c(C)c(=O)c2c1 [Example 68A, 6-Chloro-3-[(1R)-1-[3,6-dimethyl-2-(2-methyl-1,3-benzothiazol-6-yl)-4-oxo-chromen-8-yl]ethoxy]pyridine-2-carboxamide]
- pIC50 [1]: > 7.00
- pIC50 [2]: > 6.30
- pIC50 [3]: > 6.30

Compound: Cc1cc([C@@H](C)Oc2ccc(Cl)nc2C(N)=O)c2oc(-c3cc(C)c4nn(C)cc4c3)c(C)c(=O)c2c1 [Example 45C, 6-Chloro-3-[(1R)-1-[2-(2,7-dimethylindazol-5-yl)-3,6-dimethyl-4-oxo-chromen-8-yl]ethoxy]pyridine-2-carboxamide]
- pIC50 [1]: > 7.00
- pIC50 [2]: > 6.30

Compound: Cc1cc([C@@H](C)Oc2ccc(Cl)nc2-c2noc(=O)[nH]2)c2oc(-c3cnc4c(c3)OCO4)c(C)c(=O)c2c1 [Example 39A, 3-[6-Chloro-3-[(1R)-1-[2-([1,3]dioxolo[4,5-b]pyridin-6-yl)-3,6-dimethyl-4-oxo-chromen-8-yl]ethoxy]-2-pyridyl]-4H-1,2,4-oxadiazol-5-one]
- pIC50 [1]: > 7.00
- microsomal CLint at 1 μM ([4]; human, microsomes): < 50 µL/min/mg

Compound: Cc1cc(C(C)Oc2ccc(Cl)nc2C)c2oc(-c3cccnc3)c(C)c(=O)c2c1 (single isomer, unassigned; isomer 2) [Example 10, 8-[1-[(6-Chloro-2-methyl-3-pyridyl)oxy]ethyl]-3,6-dimethyl-2-(3-pyridyl)chromen-4-one, Isomer 2]
- pIC50 [1]: > 7.00
- pIC50 [2]: > 6.30

Compound: Cc1cc([C@@H](C)Oc2ccc(Cl)nc2S(N)(=O)=O)c2oc(-c3ccc(S(C)(=O)=O)cc3)c(C)c(=O)c2c1 [Example 31C, 6-Chloro-3-[(1R)-1-[3,6-dimethyl-2-(4-methylsulfonylphenyl)-4-oxo-chromen-8-yl]ethoxy]pyridine-2-sulfonamide]
- pIC50 [1]: > 7.00
- pIC50 [2]: > 6.30
- pIC50 [3]: > 6.30

Compound: Cc1cc([C@@H](C)Oc2ccc(Cl)nc2C)c2oc(-c3ccccc3)c(C)c(=O)c2c1 [Example 1, 8-[(1R)-1-[(6-Chloro-2-methyl-3-pyridyl)oxy]ethyl]-3,6-dimethyl-2-phenyl-chromen-4-one]
- pIC50 [1]: > 7.00
- pIC50 [2]: > 6.30

Compound: Cc1cc([C@@H](C)Oc2ccc(Cl)nc2-c2noc(=O)[nH]2)c2oc(-c3ccccc3)c(C)c(=O)c2c1 [Example 2, 3-[6-Chloro-3-[(1R)-1-(3,6-dimethyl-4-oxo-2-phenyl-chromen-8-yl)ethoxy]-2-pyridyl]-4H-1,2,4-oxadiazol-5-one]
- pIC50 [1]: > 7.00
- pIC50 [2]: > 6.30
- microsomal CLint at 1 μM ([4]; human liver microsomes 0.5 mg/mL, 1 μM compound, read-out: intrinsic clearance in human MICS): < 50 µL/min/mg

Compound: Cc1cc([C@@H](C)Oc2ccc(Cl)nc2C(N)=O)c2oc(-c3ccc4nn(C)cc4c3)cc(=O)c2c1 [Example 52A, 6-Chloro-3-[(1R)-1-[6-methyl-2-(2-methylindazol-5-yl)-4-oxo-chromen-8-yl]ethoxy]pyridine-2-carboxamide]
- pIC50 [1]: > 7.00
- pIC50 [2]: > 6.30
- pIC50 [3]: > 6.30
